In patent publication US20080317780A1, “VIRAL VACCINE AND METHOD FOR PREPARATION THEREOF” (NATIONAL RESEARCH COUNCIL OF CANADA, priority 2006, published 2008):

Tested on: zinc finger protein metallothionein (MT)
Test: Zinc-finger disruption assay (zinc release from metallothionein, PAR absorbance at 500 nm)
Type: biochemical
Procedure: Biochem. Biophys. 287:175-179, 1991; and Fliss, H.; Ménard, M., “Oxidant-induced mobilization of zinc from metallothionein” Arch. Biochem. Biophys. 293:195-199, 1991. Briefly, the assay is conducted as follows. The assay is performed in a cuvet containing the zinc finger protein metallothionein (MT), and the metallochromic indicator 4-(2-pyridylazo)resorcinol (PAR).

## NCl [monochloramine]
25 μmol/L
  zinc-finger disruption (PAR absorbance): increase in PAR absorbance

## OCl [hypochlorous acid]
100 μmol/L
  release of zinc in the zinc-finger assay (PAR absorbance): rapid

## N[C@@H](Cc1ccccc1)C(=O)O [phenylalanine]
500 μmol/L
  release of zinc in the zinc-finger assay (PAR absorbance): negligible
